Measured values from US7973018B2, “Cell cycle arrest and apoptosis” (University of Utah Research Foundation, priority 2004, dated 2011).
“Also recorded” adds a separate entry of the source.

Experiments:
[1] = system: γ-H2AX; assay: γ-H2AX focus formation, immunofluorescence confocal microscopy; format: cell-based, human
Description: (§1) Immunofluorescence staining. HeLa cells were harvested 48 h posttransduction by trypsinization. Single-cell suspensions of minced thymic tissue were prepared for immunostaining 20 h after HIV-1NL4-3 infection. Cells were fixed with 2% paraformaldehyde in phosphate-buffered saline (PBS) for 35 min at 4° C. and then washed three times for 5 min each time in PBS. All subsequent steps were carried out at room temperature. Samples were blocked and permeabilized for 20 min in blocking buffer (3% bovine serum albumin (BSA), 0.2% Triton X-100, and 0.01% skim milk in PBS). Primary antibody (rabbit anti-γ-H2AX (48) or rabbit anti-BRCA1 (Bethyl Laboratories, Montgomery, Tex.)) was diluted 1:400 in incubation buffer (1% BSA and 0.02% Triton X-100 in PBS) and incubated with cells for 45 min. Cells were washed with PBS, after which secondary antibody (goat anti-rabbit immunoglobulin G (IgG)-AlexaFluor568 conjugate (Molecular Probes, Eugene, Oreg.)) diluted 1:500 in incubation buffer was applied for 35 min. Cells were washed with PBS as before and mounted on glass slides by using Fluor Save reagent (CalBiochem, San Diego, Calif.). Cells were visualized for γ-H2AX or BRCA1 immunostaining and green fluorescent protein (GFP) expression by scanning fluorescence confocal microscopy (FluoView FV300; Olympus, Melville, N.Y.).
(§2) Drug treatment. Cells were incubated with 10 mM hydroxyurea (HU) for 2 h before immunostaining was done.
(§3) Vpr expression induces γ-H2AX and BRCA1 focus formation. It was possible that Vpr, through ATR activation, would induce γ-H2AX (9) and BRCA1 (45) focus formation. To test this hypothesis, HeLa cells were infected with pHR-Vpr or pHR-GFP and, 48 h later, immunostained with γ-H2AX- or BRCA1-specific antibodies. As a positive control, nontransduced cells were treated for […] with 10 mM HU 10 min prior to immunostaining (46). Samples then were visualized by fluorescence scanning confocal microscopy (FIGS. 3A and B). Cells with multiple (10 or more), intense nuclear foci were manually counted. […]

[2] = system: BRCA1; assay: BRCA1 focus formation, immunofluorescence confocal microscopy; format: cell-based, human
Description: as §1, §2, §3

[3] = system: HeLa cells; assay: Cell cycle analysis (G2 arrest) by flow cytometry in HeLa cells; format: cell-based, human; design: key: P, phosphorylated; A, activated; N, necessary for G2 checkpoint activation; F, focus formation; ?, unknown; D, dispensable for G2 checkpoint activation; settings: ATR target Rad17; this work
Description: Cell cycle analysis. At 48 h after infection, cells were detached by trypsinization, washed with fluorescence-activated cell sorting (FACS) buffer (2% FBS and 0.02% sodium azide in PBS), fixed with 2% paraformaldehyde in PBS, and permeabilized with 0.01% Triton X-100 in PBS for 15 min. Cells were washed again with FACS buffer, incubated in DNA staining buffer (10 μg of propidium iodide/ml and 11.25 kU of RNase A/ml in FACS buffer) for 15 min, and analyzed by FACScan flow cytometry for GFP expression or DNA content (Beckton Dickinson, Franklin Lakes, N.J.). In experiments involving transduction with lentivirus vectors, experiments with 90% transduction efficiency or higher were analyzed. […]
Lentivirus vectors. […] Vector titers were measured by infection of HeLa cells as described herein, followed by flow cytometric analysis of cells that were positive for the reporter molecule, GFP. Vector titers were calculated with the equation [(F×C0)/V]×D, where F is the frequency of GFP-positive cells found by flow cytometry, C0 is the total number of target cells at the time of infection, V is the volume of inoculum, and D is the virus dilution factor. […]
Rad17 is necessary for Vpr-mediated G2 arrest. […] At 48 h after transduction, cells were analyzed by flow cytometry for infection efficiency and DNA content, as reported by GFP expression and propidium iodide staining, respectively. […]

[4] = system: p53; design: key: P, phosphorylated; A, activated; N, necessary for G2 checkpoint activation; F, focus formation; ?, unknown; D, dispensable for G2 checkpoint activation; settings: ATR target p53; reference 41; cited from earlier work
[5] = system: Chk1; settings: ATR target Chk1; reference 40; cited from earlier work
[6] = system: BRCA1; assay: Western blot for BRCA1 phospho-serine 1423; format: cell-based, human; settings: HeLa cells infected with pHR-VPR, 48 hours post-transduction
Description: Western blotting procedures. All western blots were performed using the BioRad Criterion gel system (BioRad, Hercules, Calif.). Antibodies used were GADD45 (Santa Cruz Biotechnology, Santa Cruz, Calif.; sc-797), Actin (Santa Cruz Biotechnologies, Santa Cruz, Calif.; sc-797), CHK2 (Santa Cruz Biotechnology, Santa Cruz, Calif.; sc-8813), ATM (Novus Biologicals, Littleton, Colo.; catalog #100-104H1), phospho-JNK-Tyr183 (Cell Signaling Technology, Beverly, Mass.; catalog #9255S), phospho-p38 kinase (Promega, Madison; 15823207), JNK (Cell Signaling Technology, Beverly, Mass.; 9252), ATR (obtained from Dr. Paul Nghiem, Harvard), anti-rabbit secondary-HRP (Santa Cruz Biotechnology, Santa Cruz, Calif.; sc-2030), anti-goat secondary-HRP (Santa Cruz Biotechnology, Santa Cruz, Calif.; sc-2033), PARP (Cell Signaling Technology, Beverly, Mass.), BRCA1 phospho ser1423 (Bethyl Laboratories, Montgomery, Tex.) Rabbit primary antibodies against Rad17 (Santa Cruz Biotechnology, Santa Cruz, Calif.), and were applied for 90 min at room temperature. Blots were washed three times in TPBS (0.1% Tween 20 in PBS) for 10 min each time at room temperature.
Phosphorylation of BRCA1 at serine 1423 by HIV-1 Vpr is ATR-dependent. Following DNA damage, ATR phosphorylates BRCA1 at serine 1423 (45, 63). […]

[7] = system: ATM and ATR; settings: vpr-infected cells; references 5, 53; cited from earlier work
[8] = system: ATR and ATM; settings: references 40, 53; cited from earlier work
[9] = nontransduced HeLa cells treated for 1 h with 10 mM HU
[10] = HeLa cells, 48 h after infection, 10 or more intense nuclear foci

## NC(=O)NO [HU, hydroxyurea, reference compound]
[1]; [9]
  cells exhibiting γ-H2AX foci: Approximately 94%
[2]; [9]
  cells exhibiting BRCA1 foci: ~65%

## Vpr: HIV-1 accessory protein Vpr, expressed in cells from pHR-Vpr
[1]; ATR target H2AX, this work
  Status in the presence of Vpr (reference or source): H2AX: P, F (this work)
[1]; [10]
  cells exhibiting γ-H2AX foci: Approximately 93%
[2]; ATR target BRCA1, this work
  Status in the presence of Vpr (reference or source): BRCA1: P, F (this work)
[2]; [10]
  cells exhibiting BRCA1 foci: ~69%
[3]
  Status in the presence of Vpr (reference or source): Rad17: N (this work)
[4]
  Status in the presence of Vpr (reference or source): p53: D (41)
[5]
  Status in the presence of Vpr (reference or source): Chk1: P, A (40)
[6]
  phosphorylation of BRCA1 at serine 1423: induced phosphorylation of BRCA1 at serine 1423

## Cn1c(=O)c2c(ncn2C)n(C)c1=O [caffeine]
[7]
  effect on Vpr-induced apoptosis: largely eliminated induction of apoptosis; also recorded: significantly reduces Vpr-induced apoptosis
[8]
  relief of Vpr-induced G2 arrest: completely relieve Vpr-induced G2 arrest
